# Measurements reported in patent US20100137134A1, “Pesticidal Mixtures” (priority 2005, published 2010).
# Legend:
# [1] = system: vetch aphid (Megoura viciae); assay: Control of vetch aphid on broad bean leaf disks in 24-well microtiter plates (Test B.1); type: in vivo
# Protocol: For evaluating control of vetch aphid (Megoura viciae) through contact or systemic means the test unit consisted of 24-well-microtiter plates containing broad bean leaf disks.
# The compounds or mixtures were formulated using a solution containing 75% water and 25% DMSO (dimethylsulfoxid). Different concentrations of formulated compounds or mixtures were sprayed onto the leaf disks at 2.5 μl, using a custom built micro atomizer, at two replications.
# (§1) For experimental mixtures in these tests identical volumes of both mixing partners at the desired concentrations respectively, were mixed together.
# After application, the leaf disks were air-dried and 5-8 adult aphids placed on the leaf disks inside the microtiter plate wells. The aphids were then allowed to suck on the treated leaf disks and incubated at 23±1° C., 50±5% RH (room humidity) for 5 days. Aphid mortality and fecundity was then visually assessed.
# [2] = system: boll weevil (Anthonomus grandis); assay: Control of boll weevil, insect diet with eggs in 24-well microtiter plates (Test B.2); type: in vivo
# Protocol: For evaluating control of boll weevil (Anthonomus grandis) the test unit consisted of 24-well-microtiter plates containing an insect diet and 20-30 A. grandis eggs.
# The compounds or mixtures were formulated using a solution containing 75% water and 25% DMSO. Different concentrations of formulated compounds or mixtures were sprayed onto the […] at 20 μl, using a custom built micro atomizer, at two replications.
# as §1
# After application, microtiter plates were incubated at 23±1° C., 50±5% RH (room humidity) for 5 days. Egg and larval mortality was then visually assessed.
smiles,measurement,setting,value
"O=[N+]([O-])NC1=NCCN1Cc1ccc(Cl)nc1 [Imidacloprid, reference compound]",Average (Control %),"[1]; Imidacloprid alone, 1 ppm (1 + 0), aphid mortality and fecundity after 5 days",25%
same,Average (Control %),"[2]; Imidacloprid alone, 10 ppm (10 + 0), egg and larval mortality after 5 days",0%
Cc1cc(C#N)cc(C(=O)NC2CC2)c1NC(=O)c1cc(Br)nn1-c1ncccc1Cl [IA-326/T4],Average (Control %),"[2]; test compound alone, 0.01 ppm (0 + 0.01), 5 days",0%
same,Average (Control %),"[2]; test compound alone, 0.03 ppm (0 + 0.03), 5 days",0%
Cc1cc(C#N)cc(C(N)=O)c1NC(=O)c1cc(Br)nn1-c1ncccc1Cl [IA-26/T4],Average (Control %),"[1]; test compound alone, 0.1 ppm (0 + 0.1), 5 days",0%
same,Average (Control %),"[2]; test compound alone, 0.3 ppm (0 + 0.3), 5 days",0%
